Data: patent US20250320224A1 (DOMAIN THERAPEUTICS, priority 2022, published 2025)
pIC50: −log10 of the molar value. Where a name gives a salt, the structure may show the parent alone.

Molecular target: T1, human PAR-2 (hPAR-2) receptor (Homo sapiens, UniProt P55085)
T1 construct: expressed in HEK-293 cells in an endogenous manner; endogenous in cells; host or cells: HEK-293
T1 sequence (P55085 26-397): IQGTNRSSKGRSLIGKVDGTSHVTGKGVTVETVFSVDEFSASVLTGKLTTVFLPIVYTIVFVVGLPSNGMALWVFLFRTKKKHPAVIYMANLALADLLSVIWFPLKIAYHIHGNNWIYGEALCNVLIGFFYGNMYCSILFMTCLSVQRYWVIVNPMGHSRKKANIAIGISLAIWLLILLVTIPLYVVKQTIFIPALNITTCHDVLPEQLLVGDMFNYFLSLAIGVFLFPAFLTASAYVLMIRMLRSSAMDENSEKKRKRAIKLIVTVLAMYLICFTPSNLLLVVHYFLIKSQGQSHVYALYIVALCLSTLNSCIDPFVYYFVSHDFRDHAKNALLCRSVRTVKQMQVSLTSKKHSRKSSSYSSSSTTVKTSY
Experiment: In vitro human PAR-2 functional antagonist activity using calcium assays
Assay type: cell-based
Settings: hPAR-2 endogenously expressed in HEK-293 cells; stimulated by 2-Furoyl-LIGRLO-NH2 peptide; Fluo4AM intracellular calcium, FLIPR Tetra
Procedure, shortened: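 Antagonism was measured as reduced calcium response to 2-Furoyl-LIGRLO-NH2 (dosed at its 80%-of-maximum concentration), recorded for 5 min. This followed a 10 min compound pre-incubation on Fluo4AM-loaded HEK-293 cells expressing native hPAR-2. Signals were normalised to buffer and agonist-alone controls.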

Structure (SMILES) | pIC50
CC1(C)CN(c2ccc(Cl)c(F)c2)c2ccc(C(=O)N3CCCC(Nc4ccc(C(=O)O)cn4)C3)nc21 (centres unmarked) [Example 109, 6-((1-(1-(4-chloro-3-fluorophenyl)-3,3-dimethyl-2,3-dihydro-1H-pyrrolo[3,2-b]pyridine-5-carbonyl)piperidin-3-yl)amino)nicotinic acid] | < 5.00
CN(c1ccc(C(=O)O)cn1)C1CCCN(C(=O)c2ccc3c(n2)C(C)(C)CN3c2ccc(Cl)c(F)c2)C1 (centres unmarked) [Example 111, 6-((1-(1-(4-chloro-3-fluorophenyl)-3,3-dimethyl-2,3-dihydro-1H-pyrrolo[3,2-b]pyridine-5-carbonyl)piperidin-3-yl)(methyl)amino)nicotinic acid hydrochloride] | 5.00 to 6.30
Cc1cc(N2CCN(C(=O)c3ccc4c(n3)C3(CCCC3)CN4c3ccc(F)c(F)c3)C(C)(C)C2)nc(C)c1C(=O)O [Example 113, 6-(4-(1′-(3,4-difluorophenyl)-1′,2′-dihydrospiro[cyclopentane-1,3′-pyrrolo[3,2-b]pyridine]-5′-carbonyl)-3,3-dimethylpiperazin-1-yl)-2,4-dimethylnicotinic acid] | > 6.30
CC1(C)CN(c2ccc(Cl)c(F)c2)c2ccc(C(=O)N3CCN(c4cc(CC(=O)O)ccn4)CC3(C)C)nc21 [Example 115, 2-(2-(4-(1-(4-chloro-3-fluorophenyl)-3,3-dimethyl-2,3-dihydro-1H-pyrrolo[3,2-b]pyridine-5-carbonyl)-3,3-dimethylpiperazin-1-yl)pyridin-4-yl)acetic acid] | > 6.30
CC1(C)CN(c2ccc(Cl)c(F)c2)c2ccc(C(=O)N3CCN(c4ccc(CC(=O)O)nc4)CC3(C)C)nc21 [Example 117, 2-(5-(4-(1-(4-chloro-3-fluorophenyl)-3,3-dimethyl-2,3-dihydro-1H-pyrrolo[3,2-b]pyridine-5-carbonyl)-3,3-dimethylpiperazin-1-yl)pyridin-2-yl)acetic acid] | > 6.30
CC1(C)CN(c2ccc(CC(=O)O)cn2)CCN1C(=O)c1ccc2c(n1)C1(CCC1)CN2c1ccc(Cl)c(F)c1 [Example 119, 2-(6-(4-(1′-(4-chloro-3-fluorophenyl)-1′,2′-dihydrospiro[cyclobutane-1,3′-pyrrolo[3,2-b]pyridine]-5′-carbonyl)-3,3-dimethylpiperazin-1-yl)pyridin-3-yl)acetic acid] | > 6.30
CC1(C)CN(c2ccc(Cl)c(F)c2)c2ccc(C(=O)N3CCC4(C3)C(=O)Nc3ccccc34)nc21 (centres unmarked) [Example 120, 1′-(1-(4-chloro-3-fluorophenyl)-3,3-dimethyl-2,3-dihydro-1H-pyrrolo[3,2-b]pyridine-5-carbonyl)spiro[indoline-3,3′-pyrrolidin]-2-one] | < 5.00
CC1(C)CN(c2ccc(Cl)c(F)c2)c2ccc(C(=O)N3CCC4(CC3)CNC(=O)O4)nc21 [Example 121, 8-(1-(4-chloro-3-fluorophenyl)-3,3-dimethyl-2,3-dihydro-1H-pyrrolo[3,2-b]pyridine-5-carbonyl)-1-oxa-3,8-diazaspiro[4.5]decan-2-one] | 5.00 to 6.30
CC1(C)CN(c2ccc(Cl)c(F)c2)c2ccc(C(=O)N3CC4(C3)CN(c3ccc(C(=O)O)cn3)C4)nc21 [Example 123, 6-(6-(1-(4-chloro-3-fluorophenyl)-3,3-dimethyl-2,3-dihydro-1H-pyrrolo[3,2-b]pyridine-5-carbonyl)-2,6-diazaspiro[3.3]heptan-2-yl)nicotinic acid] | < 5.00
O=C(O)CC1CCN(C(=O)c2ccc3c(n2)C2(CCC2)CN3c2ccc(Cl)c(F)c2)CC1 [Example 125, 2-(1-(1′-(4-chloro-3-fluorophenyl)-1′,2′-dihydrospiro[cyclobutane-1,3′-pyrrolo[3,2-b]pyridine]-5′-carbonyl)piperidin-4-yl)acetic acid] | 5.00 to 6.30
CC1(C)C(=O)NCCN1C(=O)c1ccc2c(n1)C1(CCC1)CN2c1ccc(Cl)c(F)c1 [Example 126, 4-(1′-(4-chloro-3-fluorophenyl)-1′,2′-dihydrospiro[cyclobutane-1,3′-pyrrolo[3,2-b]pyridine]-5′-carbonyl)-3,3-dimethylpiperazin-2-one] | > 6.30
CC1(C)CN(c2ccc(CC(=O)O)cn2)CCN1C(=O)c1ccc2c(n1)C1(CN2c2ccc(Cl)c(F)c2)CC(F)(F)C1 [Example 128, 2-(6-(4-(1′-(4-chloro-3-fluorophenyl)-3,3-difluoro-1′,2′-dihydrospiro[cyclobutane-1,3′-pyrrolo[3,2-b]pyridine]-5′-carbonyl)-3,3-dimethylpiperazin-1-yl)pyridin-3-yl)acetic acid] | > 6.30
Cc1cc(N2CCN(C(=O)c3ccc(N4CC(C)(C)c5nc(C(=O)N6CCN(c7cc(C)c(C(=O)O)c(C)n7)CC6(C)C)ccc54)nc3)C(C)(C)C2)nc(C)c1C(=O)O [Example 133, 6-(4-(6-(5-(4-(5-carboxy-4,6-dimethylpyridin-2-yl)-2,2-dimethylpiperazine-1-carbonyl)-3,3-dimethyl-2,3-dihydro-1H-pyrrolo[3,2-b]pyridin-1-yl)nicotinoyl)-3,3-dimethylpiperazin-1-yl)-2,4-dimethylnicotinic acid] | < 5.00
Cc1cc(N2CCN(C(=O)c3ccc4c(n3)C(C)(C)CN4c3ccc(Cl)cn3)C(C)(C)C2)nc(C)c1C(=O)O [Example 134, 6-(4-(1-(5-chloropyridin-2-yl)-3,3-dimethyl-2,3-dihydro-1H-pyrrolo[3,2-b]pyridine-5-carbonyl)-3,3-dimethylpiperazin-1-yl)-2,4-dimethylnicotinic acid] | > 6.30
COC(=O)c1c(C)cc(N2CCN(C(=O)c3ccc4c(n3)C(C)(C)CN4c3ccccn3)C(C)(C)C2)nc1C [Example 135, methyl 6-(4-(3,3-dimethyl-1-(pyridin-2-yl)-2,3-dihydro-1H-pyrrolo[3,2-b]pyridine-5-carbonyl)-3,3-dimethylpiperazin-1-yl)-2,4-dimethylnicotinate] | 5.00 to 6.30
Cc1ccc(N2CCN(C(=O)c3ccc4c(n3)C(C)(C)CN4c3ccc(Cl)c(F)c3)C(C)(C)C2)nc1C(=O)O [Example 140, 6-(4-(1-(4-chloro-3-fluorophenyl)-3,3-dimethyl-2,3-dihydro-1H-pyrrolo[3,2-b]pyridine-5-carbonyl)-3,3-dimethylpiperazin-1-yl)-3-methylpicolinic acid] | > 6.30
COc1ncc(N2CCN(C(=O)c3ccc4c(n3)C(C)(C)CN4c3ccc(Cl)c(F)c3)C(C)(C)C2)cc1C(=O)O [Example 142, 5-(4-(1-(4-chloro-3-fluorophenyl)-3,3-dimethyl-2,3-dihydro-1H-pyrrolo[3,2-b]pyridine-5-carbonyl)-3,3-dimethylpiperazin-1-yl)-2-methoxynicotinic acid] | > 6.30
CO[C@@H]1CCC2(C1)CN(c1ccc(Cl)c(F)c1)c1ccc(C(=O)N3CCN(c4cc(C)c(C(=O)O)c(C)n4)CC3(C)C)nc12 (stereo partly drawn) [Example 144, 6-(4-((3R)-1′-(4-chloro-3-fluorophenyl)-3-methoxy-1′,2′-dihydrospiro[cyclopentane-1,3′-pyrrolo[3,2-b]pyridine]-5′-carbonyl)-3,3-dimethylpiperazin-1-yl)-2,4-dimethylnicotinic acid] | > 6.30
CO[C@H]1CCC2(C1)CN(c1ccc(Cl)c(F)c1)c1ccc(C(=O)N3CCN(c4cc(C)c(C(=O)O)c(C)n4)CC3(C)C)nc12 (stereo partly drawn) [Example 146, 6-(4-((3S)-1′-(4-chloro-3-fluorophenyl)-3-methoxy-1′,2′-dihydrospiro[cyclopentane-1,3′-pyrrolo[3,2-b]pyridine]-5′-carbonyl)-3,3-dimethylpiperazin-1-yl)-2,4-dimethylnicotinic acid] | > 6.30
CCC1(CC)CN(c2ccc(Cl)c(F)c2)c2ccc(C(=O)N3CCN(c4ccc(CC(=O)O)cn4)CC3(C)C)nc21 [Example 148, 2-(6-(4-(1-(4-chloro-3-fluorophenyl)-3,3-diethyl-2,3-dihydro-1H-pyrrolo[3,2-b]pyridine-5-carbonyl)-3,3-dimethylpiperazin-1-yl)pyridin-3-yl)acetic acid] | > 6.30
CC1(C)CN(c2ccc(Cl)c(F)c2)c2ccc(C(=O)N3CCN(c4cncc(C(=O)O)c4)CC3(C)C)nc21 [Example 151, 5-(4-(1-(4-chloro-3-fluorophenyl)-3,3-dimethyl-2,3-dihydro-1H-pyrrolo[3,2-b]pyridine-5-carbonyl)-3,3-dimethylpiperazin-1-yl)nicotinic acid] | > 6.30
CC1(C)CN(c2ccc(C(=O)N3CCN(c4cncc(C(=O)O)c4)CC3(C)C)c(F)c2)c2ccc(C(=O)N3CCN(c4cncc(C(=O)O)c4)CC3(C)C)nc21 [Example 152, 5-(4-(4-(5-(4-(5-carboxypyridin-3-yl)-2,2-dimethylpiperazine-1-carbonyl)-3,3-dimethyl-2,3-dihydro-1H-pyrrolo[3,2-b]pyridin-1-yl)-2-fluorobenzoyl)-3,3-dimethylpiperazin-1-yl)nicotinic acid] | < 5.00
CC1CC2(C1)CN(c1ccc(Cl)c(F)c1)c1ccc(C(=O)N3CCN(c4ccc(CC(=O)O)cn4)CC3(C)C)nc12 (centres unmarked) [Example 154, 2-(6-(4-(1′-(4-chloro-3-fluorophenyl)-3-methyl-1′,2′-dihydrospiro[cyclobutane-1,3′-pyrrolo[3,2-b]pyridine]-5′-carbonyl)-3,3-dimethylpiperazin-1-yl)pyridin-3-yl)acetic acid] | > 6.30
